{"source": "the supplement of paper PMC8988213", "key": {"[1]": {"tested_on": "ID188 patient-derived PDAC 2D line (pre-FOLFIRINOX)", "test": "normalised area under dose-response curve (viability relative to DMSO, 7 doses up to 10 µM) (fraction (AUC)); higher = less sensitive (more viability retained)", "details": "72 h; top dose: 10 µM", "outline": "(§1)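 2D PDAC cells grown out from patient-derived organoids were robotically seeded in 96-well plates at 1,500–3,000 cells/well and kept overnight at 37°C in 5% CO2. Compounds from a SelleckChem library were then applied for 72 h at seven concentrations, made as a 3-fold dilution series with 10 µM as the highest. CellTiter-Glo luminescence was measured 10 min later. Viability was normalised to control wells, and the GRmetrics R package was used to derive the area under the dose-response curve.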"}, "[2]": {"tested_on": "ID211 patient-derived PDAC 2D line (post-FOLFIRINOX)", "test": "normalised area under dose-response curve (viability relative to DMSO, 7 doses up to 10 µM) (fraction (AUC)); higher = less sensitive (more viability retained)", "details": "72 h; top dose: 10 µM", "outline": "as §1"}}, "data": [{"smiles": "Nc1cccc(S(=O)(=O)N2CCCN(S(=O)(=O)c3ccc4c(c3)OCCO4)CC2)c1", "note": "[DASA-58]", "values": [{"measurement": "normalised area under dose-response curve", "setting": "[1]", "result": 0.918}, {"measurement": "normalised area under dose-response curve", "setting": "[2]", "result": 0.808}]}, {"smiles": "CCOc1ccn(-c2ccc(F)cc2)c(=O)c1C(=O)Nc1ccc(Oc2ccnc(N)c2Cl)c(F)c1", "values": [{"measurement": "normalised area under dose-response curve", "setting": "[1]", "result": 0.882}, {"measurement": "normalised area under dose-response curve", "setting": "[2]", "result": 0.945}]}, {"smiles": "O=C(O)c1nn(Cc2ccc(Cl)cc2Cl)c2ccccc12", "note": "[Lonidamine]", "values": [{"measurement": "normalised area under dose-response curve", "setting": "[1]", "result": 0.934}, {"measurement": "normalised area under dose-response curve", "setting": "[2]", "result": 0.87}]}, {"smiles": "Cc1cc(SCc2sc(-c3ccc(C(F)(F)F)c(F)c3)nc2C)ccc1OCC(=O)O", "note": "[GW0742]", "values": [{"measurement": "normalised area under dose-response curve", "setting": "[1]", "result": 0.763}, {"measurement": "normalised area under dose-response curve", "setting": "[2]", "result": 0.93}]}, {"smiles": "Cc1[nH]nc(C(F)(F)F)c1Cc1sc2c(c1C(=O)N1C[C@](C)(O)CO1)c(=O)n(C)c(=O)n2C(C)C", "note": "[AZD3965]", "values": [{"measurement": "normalised area under dose-response curve", "setting": "[1]", "result": 0.937}, {"measurement": "normalised area under dose-response curve", "setting": "[2]", "result": 0.89}]}, {"smiles": "Nc1nccc(Oc2ccc3c(C(=O)Nc4cccc(C(F)(F)F)c4)cccc3c2)n1", "note": "[BAW2881 (NVP-BAW2881)]", "values": [{"measurement": "normalised area under dose-response curve", "setting": "[1]", "result": 0.885}, {"measurement": "normalised area under dose-response curve", "setting": "[2]", "result": 0.961}]}, {"smiles": "CCc1cncnc1N1CCN(Cc2nc3ccc(C(F)(F)F)cc3[nH]2)CC1", "values": [{"measurement": "normalised area under dose-response curve", "setting": "[1]", "result": 0.92}, {"measurement": "normalised area under dose-response curve", "setting": "[2]", "result": 0.936}]}, {"smiles": "O=C(Nc1cc(Cl)cc2c1[nH]c1cnccc12)c1cccnc1", "note": "[PS-1145]", "values": [{"measurement": "normalised area under dose-response curve", "setting": "[1]", "result": 0.923}, {"measurement": "normalised area under dose-response curve", "setting": "[2]", "result": 0.839}]}, {"smiles": "CC(C)(C)Cn1c(N)nc2ccc(-c3[nH]c(C(C)(C)C)nc3-c3ccc(F)cc3)nc21", "values": [{"measurement": "normalised area under dose-response curve", "setting": "[1]", "result": 0.992}, {"measurement": "normalised area under dose-response curve", "setting": "[2]", "result": 0.862}]}, {"smiles": "O=C(NC[C@H](O)CN1CCc2ccccc2C1)c1ccnc(NC2CCC2)c1", "note": "[GSK591]", "values": [{"measurement": "normalised area under dose-response curve", "setting": "[1]", "result": 0.843}, {"measurement": "normalised area under dose-response curve", "setting": "[2]", "result": 0.881}]}, {"smiles": "CC(=O)N1CCC[C@H]1C(=O)N[C@@H](Cc1cnc[nH]1)C(=O)N[C@@H](CO)C(=O)N[C@@H](CS)C(=O)N[C@@H](CC(N)=O)C(N)=O", "note": "[ATN-161 (Ac-PHSCN-NH2)]", "values": [{"measurement": "normalised area under dose-response curve", "setting": "[1]", "result": 1}, {"measurement": "normalised area under dose-response curve", "setting": "[2]", "result": 0.858}]}, {"smiles": "Cc1cc(Nc2nc(N[C@@H](C)c3ncc(F)cn3)ncc2Cl)[nH]n1", "note": "[AZD1480]", "values": [{"measurement": "normalised area under dose-response curve", "setting": "[1]", "result": 0.952}, {"measurement": "normalised area under dose-response curve", "setting": "[2]", "result": 0.766}]}, {"smiles": "CN(C)CC#Cc1ccc(OCCCc2sc(N3CCc4cccc(C(=O)Nc5nc6ccccc6s5)c4C3)nc2C(=O)O)c(F)c1", "values": [{"measurement": "normalised area under dose-response curve", "setting": "[1]", "result": 0.789}, {"measurement": "normalised area under dose-response curve", "setting": "[2]", "result": 0.592}]}, {"smiles": "CNC(=O)c1cccc(-c2ccc3c(N4CCOC[C@@H]4C)nc(N4CCOC[C@@H]4C)nc3n2)c1", "note": "[Vistusertib (AZD2014)]", "values": [{"measurement": "normalised area under dose-response curve", "setting": "[1]", "result": 0.723}, {"measurement": "normalised area under dose-response curve", "setting": "[2]", "result": 0.765}]}, {"smiles": "O=C(Nc1ccc(OC(F)(F)F)cc1)c1sccc1NCc1ccnc2ccccc12", "note": "[OSI-930]", "values": [{"measurement": "normalised area under dose-response curve", "setting": "[1]", "result": 0.904}, {"measurement": "normalised area under dose-response curve", "setting": "[2]", "result": 0.819}]}, {"smiles": "CCCc1cc(C)[nH]c(=O)c1CNC(=O)c1cc(-c2ccc(N3CCN(C(C)C)CC3)nc2)cc2c1cnn2C(C)C", "note": "[UNC1999]", "values": [{"measurement": "normalised area under dose-response curve", "setting": "[1]", "result": 0.932}, {"measurement": "normalised area under dose-response curve", "setting": "[2]", "result": 0.786}]}, {"smiles": "C=CC(=O)Nc1cccc(Nc2nc(Nc3ccc(OCCOC)cc3)ncc2F)c1", "note": "[Spebrutinib (CC-292, AVL-292)]", "values": [{"measurement": "normalised area under dose-response curve", "setting": "[1]", "result": 0.709}, {"measurement": "normalised area under dose-response curve", "setting": "[2]", "result": 0.888}]}, {"smiles": "O=C(Oc1cc(S(=O)(=O)c2ccccc2)ccc1[N+](=O)[O-])c1ccc(Cl)cc1", "values": [{"measurement": "normalised area under dose-response curve", "setting": "[1]", "result": 0.959}, {"measurement": "normalised area under dose-response curve", "setting": "[2]", "result": 0.869}]}, {"smiles": "CC(C(=O)Nc1cccc(/N=C/c2c(O)ccc3ccccc23)c1)c1ccccc1", "note": "(centres undefined) [Salermide]", "values": [{"measurement": "normalised area under dose-response curve", "setting": "[1]", "result": 0.876}, {"measurement": "normalised area under dose-response curve", "setting": "[2]", "result": 0.858}]}, {"smiles": "CC(C)CCN1c2nc(Nc3cc(F)c(O)c(F)c3)ncc2N(C)C(=O)C1C", "note": "(centres undefined) [BI-D1870]", "values": [{"measurement": "normalised area under dose-response curve", "setting": "[1]", "result": 0.925}, {"measurement": "normalised area under dose-response curve", "setting": "[2]", "result": 0.876}]}, {"smiles": "CC(C)(O)CNc1nc(Nc2ccnc(C(F)(F)F)c2)nc(-c2cccc(C(F)(F)F)n2)n1", "note": "[Enasidenib (AG-221)]", "values": [{"measurement": "normalised area under dose-response curve", "setting": "[1]", "result": 0.97}, {"measurement": "normalised area under dose-response curve", "setting": "[2]", "result": 0.875}]}, {"smiles": "CNS(=O)(=O)Nc1nccc(Cc2c(C)c3ccc(Oc4ncccn4)cc3oc2=O)c1F", "values": [{"measurement": "normalised area under dose-response curve", "setting": "[1]", "result": 0.679}, {"measurement": "normalised area under dose-response curve", "setting": "[2]", "result": 0.409}]}]}
